# Data taken from patent US20130150377A1, “Tetrahydropyridinyl and Dihydropyrrolyl Compounds and the Use Thereof” (SHIONOGI & CO., LTD., priority 2008, published 2013).
# Key:
# [1] = target: T1, L-type calcium channel (LTCC) subunits (α1c, α2δ, and β1) (Rattus norvegicus, UniProt P22002); experiment: FLIPR calcium mobilization assay for L-type calcium channel (HEK293 cells expressing recombinant LTCC subunits); type: cell-based; details: calcium mobilization assay for L-type calcium channel blocking activity
# T1 construct: expressed in transfected cells; pcDNA6.2DEST α1c, pcDNA3.2DEST β1, pcDNA3.1-Zeo α2δ)
# Experimental: Recombinant human embryonal kidney cells (HEK293, ATCC) stably transfected with either N-type calcium channel (NTCC) subunits (α1b, α28, and β3) or L-type calcium channel (LTCC) subunits (α1c, α2δ, and […]) were routinely cultured in growth medium consisting of Dulbecco's Modified Eagles Medium containing 10% FBS, 100 U/mL penicillin, 100 μg/mL streptomycin, 4 mM L-glutamine, 500 μg/mL geneticin (G418), 20 μg/mL Blasticidin S (InVivogen, San Diego, Calif.) and 500 μg/mL zeocin (InVivogen).
# FLIPR Calcium Mobilization Assay for L-type Calcium Channel.
# One day prior to performing this assay, HEK293 cells stably expressing recombinant rat L-type calcium channel (LTCC) subunits (α1c, α2δ, and β1) were trypsinized, then seeded on poly-D-lysine-coated 96-well clear-bottom black plates (Becton Dickinson, Franklin Lakes, N.J.) at 75,000 cells/well. […] The FLIPR measured basal Fluo-4 fluorescence for 15 seconds, then added 0.05 mL of each compound tested diluted in LTCC assay buffer at final concentrations ranging from about 846 pM to about 17 μM. Fluo-4 fluorescence was then measured for 5 minutes. 0.1 mL KCl agonist dissolved in LTCC assay buffer was, then added to the cells to produce a final concentration of 90 mM KCl, and fluorescence was measured for another 45 seconds. […]
# [2] = target: T2, N-type calcium channel (NTCC) (Homo sapiens, UniProt Q00975); experiment: FLIPR calcium mobilization assay for N-type calcium channel (differentiated IMR32 cells); type: cell-based; details: N-type calcium channel blockers, calcium mobilization in vitro assay
# T2 construct: endogenous in cells; host or cells: differentiated IMR32 cells (ATCC)
# T2 sequence (Q00975 whole entry): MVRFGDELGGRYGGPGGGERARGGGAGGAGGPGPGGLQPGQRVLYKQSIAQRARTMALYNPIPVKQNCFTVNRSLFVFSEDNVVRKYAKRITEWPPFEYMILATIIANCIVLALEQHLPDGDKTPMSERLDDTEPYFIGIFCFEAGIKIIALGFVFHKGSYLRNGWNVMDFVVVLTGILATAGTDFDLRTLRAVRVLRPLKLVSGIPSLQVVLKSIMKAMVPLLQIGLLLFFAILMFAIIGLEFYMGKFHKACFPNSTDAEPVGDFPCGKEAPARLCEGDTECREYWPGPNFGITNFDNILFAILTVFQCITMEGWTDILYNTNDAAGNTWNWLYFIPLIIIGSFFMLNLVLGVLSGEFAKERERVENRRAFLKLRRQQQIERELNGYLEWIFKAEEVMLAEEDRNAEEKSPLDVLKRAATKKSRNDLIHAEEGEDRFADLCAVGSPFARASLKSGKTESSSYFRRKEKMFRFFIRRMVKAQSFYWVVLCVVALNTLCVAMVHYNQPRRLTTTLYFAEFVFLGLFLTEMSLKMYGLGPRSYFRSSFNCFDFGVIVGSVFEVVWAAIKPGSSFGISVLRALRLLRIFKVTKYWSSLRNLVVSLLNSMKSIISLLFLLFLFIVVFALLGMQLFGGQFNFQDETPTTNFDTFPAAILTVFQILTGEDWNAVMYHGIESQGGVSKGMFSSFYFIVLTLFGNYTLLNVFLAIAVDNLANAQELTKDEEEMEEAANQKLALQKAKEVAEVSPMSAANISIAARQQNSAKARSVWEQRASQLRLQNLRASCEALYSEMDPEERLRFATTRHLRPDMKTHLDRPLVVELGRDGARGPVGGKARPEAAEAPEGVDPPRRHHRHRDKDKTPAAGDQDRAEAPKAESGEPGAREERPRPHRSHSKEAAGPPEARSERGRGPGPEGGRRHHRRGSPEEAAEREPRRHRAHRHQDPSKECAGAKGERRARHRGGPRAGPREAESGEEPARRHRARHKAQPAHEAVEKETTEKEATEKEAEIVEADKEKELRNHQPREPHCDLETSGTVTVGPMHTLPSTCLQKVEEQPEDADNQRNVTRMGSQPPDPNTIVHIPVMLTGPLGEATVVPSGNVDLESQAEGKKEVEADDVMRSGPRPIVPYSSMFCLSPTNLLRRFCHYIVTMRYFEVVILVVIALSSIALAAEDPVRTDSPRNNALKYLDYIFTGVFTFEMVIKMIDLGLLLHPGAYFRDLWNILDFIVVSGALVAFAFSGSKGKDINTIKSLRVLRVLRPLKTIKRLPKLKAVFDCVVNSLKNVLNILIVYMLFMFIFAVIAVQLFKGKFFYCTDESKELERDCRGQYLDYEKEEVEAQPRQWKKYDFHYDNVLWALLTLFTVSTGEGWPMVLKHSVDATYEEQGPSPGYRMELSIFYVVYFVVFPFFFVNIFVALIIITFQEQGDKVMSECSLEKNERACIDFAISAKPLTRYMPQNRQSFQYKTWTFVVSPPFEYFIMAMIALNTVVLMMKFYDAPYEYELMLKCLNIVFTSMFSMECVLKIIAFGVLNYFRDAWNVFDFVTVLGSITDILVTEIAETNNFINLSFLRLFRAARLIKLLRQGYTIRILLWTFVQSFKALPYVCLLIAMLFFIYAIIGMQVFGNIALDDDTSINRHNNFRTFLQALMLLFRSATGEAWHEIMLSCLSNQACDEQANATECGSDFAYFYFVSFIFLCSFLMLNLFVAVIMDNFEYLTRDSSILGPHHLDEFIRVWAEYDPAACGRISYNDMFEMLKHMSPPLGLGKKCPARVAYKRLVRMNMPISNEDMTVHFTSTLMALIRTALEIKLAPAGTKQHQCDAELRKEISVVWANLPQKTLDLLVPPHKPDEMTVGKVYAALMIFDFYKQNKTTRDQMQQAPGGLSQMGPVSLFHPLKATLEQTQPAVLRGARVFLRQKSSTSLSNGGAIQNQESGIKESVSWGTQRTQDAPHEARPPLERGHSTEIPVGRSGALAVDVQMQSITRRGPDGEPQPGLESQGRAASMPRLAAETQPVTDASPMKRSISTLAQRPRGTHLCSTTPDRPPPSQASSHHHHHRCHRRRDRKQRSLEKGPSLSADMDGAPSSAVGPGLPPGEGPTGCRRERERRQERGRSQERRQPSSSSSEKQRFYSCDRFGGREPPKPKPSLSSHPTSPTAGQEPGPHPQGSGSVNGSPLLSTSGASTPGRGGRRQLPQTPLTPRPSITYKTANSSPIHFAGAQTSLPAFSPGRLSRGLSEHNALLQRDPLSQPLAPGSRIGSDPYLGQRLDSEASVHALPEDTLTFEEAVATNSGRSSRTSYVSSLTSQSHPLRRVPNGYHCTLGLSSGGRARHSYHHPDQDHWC
# T2 sequence (P54289 25-956 partner limits assumed): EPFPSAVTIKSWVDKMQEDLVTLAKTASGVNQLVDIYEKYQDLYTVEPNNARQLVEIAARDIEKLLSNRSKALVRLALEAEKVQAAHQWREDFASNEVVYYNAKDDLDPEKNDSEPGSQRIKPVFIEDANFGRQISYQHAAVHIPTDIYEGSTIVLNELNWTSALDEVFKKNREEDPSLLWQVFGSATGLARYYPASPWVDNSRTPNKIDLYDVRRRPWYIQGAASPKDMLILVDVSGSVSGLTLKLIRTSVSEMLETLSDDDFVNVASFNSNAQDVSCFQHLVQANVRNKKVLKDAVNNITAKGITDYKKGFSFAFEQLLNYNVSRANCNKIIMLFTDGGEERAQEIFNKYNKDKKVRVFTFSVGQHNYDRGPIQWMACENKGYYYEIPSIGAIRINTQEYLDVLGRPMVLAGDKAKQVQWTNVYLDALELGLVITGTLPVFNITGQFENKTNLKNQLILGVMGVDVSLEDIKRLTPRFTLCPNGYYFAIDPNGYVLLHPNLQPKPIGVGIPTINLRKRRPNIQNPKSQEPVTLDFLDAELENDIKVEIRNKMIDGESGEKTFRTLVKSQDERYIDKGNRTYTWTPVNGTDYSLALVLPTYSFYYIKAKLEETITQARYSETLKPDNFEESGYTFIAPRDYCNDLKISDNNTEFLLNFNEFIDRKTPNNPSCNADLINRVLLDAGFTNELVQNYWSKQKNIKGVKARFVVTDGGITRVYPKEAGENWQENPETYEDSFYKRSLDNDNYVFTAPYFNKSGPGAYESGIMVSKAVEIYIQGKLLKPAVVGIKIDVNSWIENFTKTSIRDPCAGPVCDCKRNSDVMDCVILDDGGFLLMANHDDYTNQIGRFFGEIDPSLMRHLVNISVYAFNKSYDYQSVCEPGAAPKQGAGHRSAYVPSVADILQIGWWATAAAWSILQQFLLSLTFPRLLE
# T2 sequence (P54289 957-1103 partner limits assumed): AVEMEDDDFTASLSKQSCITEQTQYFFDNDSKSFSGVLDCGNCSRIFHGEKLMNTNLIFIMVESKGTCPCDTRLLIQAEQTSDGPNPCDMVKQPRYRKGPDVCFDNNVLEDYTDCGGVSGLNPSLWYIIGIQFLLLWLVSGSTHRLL
# T2 sequence (P54284 whole entry partner): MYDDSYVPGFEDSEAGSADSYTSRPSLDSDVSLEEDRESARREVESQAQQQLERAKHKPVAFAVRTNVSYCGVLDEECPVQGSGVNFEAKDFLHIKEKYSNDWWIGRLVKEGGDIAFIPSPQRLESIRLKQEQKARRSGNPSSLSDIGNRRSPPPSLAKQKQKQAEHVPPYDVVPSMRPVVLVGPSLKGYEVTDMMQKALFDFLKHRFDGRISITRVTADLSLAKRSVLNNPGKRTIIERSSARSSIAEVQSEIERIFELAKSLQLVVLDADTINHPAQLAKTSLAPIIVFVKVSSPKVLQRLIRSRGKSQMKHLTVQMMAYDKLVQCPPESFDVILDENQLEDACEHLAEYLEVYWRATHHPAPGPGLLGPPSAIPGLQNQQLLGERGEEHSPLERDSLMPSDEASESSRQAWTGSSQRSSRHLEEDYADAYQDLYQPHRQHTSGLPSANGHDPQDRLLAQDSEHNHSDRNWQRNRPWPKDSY
# Experimental: Cell maintenance and differentiation. Unless noted otherwise, cell culture reagents were purchased from Mediatech of Herndon, Md. IMR32 cells (American Type Culture Collection, ATCC, Manassas, Va.) were routinely cultured in growth medium consisting of minimum essential medium containing 10% fetal bovine serum (FBS, Hyclone, Logan, Utah), 100 U/mL penicillin, 100 μg/mL streptomycin, 2 mM L-glutamine, 1 mM sodium pyruvate, and 1×MEM non-essential amino acids. 80-90% confluent flasks of cells were differentiated using the following differentiation medium: Growth medium plus 1 mM dibutyryl cyclic AMP (Sigma, St. Louis, Mo.), and 2.5 μM bromodeoxyuridine (Sigma). Cells were differentiated for 8 days by replacing differentiation medium every 2-3 days.
# FLIPR Calcium Mobilization Assay for N-type Calcium Channel.
# One day prior to performing this assay, differentiated IMR32 cells were treated with 1× CellStripper, and seeded on poly-D-lysine-coated 96-well clear-bottom black plates (Becton Dickinson, Franklin Lakes, N.J.) at 200,000 cells/well. On the day of the assay, the cell plates were washed with IMR32 buffer (127 mM NaCl, 1 mM KCl, 2 mM MgCl2, 700 μM NaH2PO4, 5 mM CaCl2, 5 mM NaHCO3, 8 mM HEPES, 10 mM glucose, pH 7.4), then pre-stimulated with KCl and loaded as follows: […] of IMR32 buffer, 0.05 mL of each compound tested diluted in IMR32 buffer containing 20 μM nitrendipine (Sigma), and 0.1 mL KCl dissolved in IMR32 buffer, plus Fluo-4 were added (3 μM final concentration, Molecular Probes, Eugene, Oreg.). Final test compound concentrations ranged from about 846 pM to about 17 μM, final nitrendipine concentration was 5 μM, and final KCl concentration was 90 mM. After 1 hour, the cells were washed twice with 0.05 mL of each compound tested in nitrendipine-containing IMR32 buffer (no KCl or Fluo-4), and then replaced with 0.1 mL of each compound tested in nitrendipine-containing IMR32 buffer. Plates were then transferred to a Fluorimetric Imaging Plate Reader (FLIPR^96, Molecular Devices, Inc., Sunnyvale, Calif.) for assay. The FLIPR measured basal Fluo-4 fluorescence for 315 seconds (i.e., 5 minutes and 15 seconds), then added 0.1 mL KCl agonist dissolved in IMR32 buffer and measured fluorescence for another 45 seconds. Final test compound concentrations on the cells after FLIPR read ranged from about 846 pM to about 17 μM, final nitrendipine concentration was 5 μM, and final KCl concentration was 90 mM. Data were collected over the entire time course and analyzed using Excel, Graph Pad Prism (version 3.02, Graph Pad, San Diego, Calif.), or an in-house non-linear regression analysis software.
Structure (SMILES),IC50 [1],IC50 [2]
"O=C(NC1CC1)c1cccc(C2=CC(=O)N(S(=O)(=O)c3cccc(C(F)(F)F)c3)CC2)n1 [Compound 45, 6′-Oxo-1′-(3-trifluoromethylbenzenesulfonyl)-1′,2′,3′,6′-tetrahydro-[2,4′]bipyridinyl-6-carboxylic acid cyclopropylamide]",> 20000 nM,20 nM
"O=C(NC1CC1)c1cccc(C2=CCN(S(=O)(=O)Cc3cccc(C(F)(F)F)c3)CC2)n1 [1′-(3-Trifluoromethylbenzylsulfonyl)-1′,2′,3′,6′-tetrahydro-[2,4′]bipyridinyl-6-carboxylic acid cyclopropylamide]",–,670 nM
"O=C(NCCC(F)(F)F)c1ncccc1C1=CCN(S(=O)(=O)c2ccc(OC(F)(F)F)cc2)CC1 [1′-(4-Trifluoromethoxybenzenesulfonyl)-1′,2′,3′,6′-tetrahydro-[3,4′]bipyridinyl-2-carboxylic acid 3,3,3-trifluoropropylamide]",–,940 nM
"O=C(NC1CC1)c1cccc(C2=CCN(S(=O)(=O)c3ccc(C(F)(F)F)cc3)CC2)n1 [1′-(4-Trifluoromethylbenzenesulfonyl)-1′,2′,3′,6′-tetrahydro-[2,4′]bipyridinyl-6-carboxylic acid cyclopropylamide]",–,110 nM
"O=C(Nc1cccc(C2=CCN(S(=O)(=O)c3cccc(C(F)(F)F)c3)CC2)n1)C1CC1 [Compound 82, 1′-(3-Trifluoromethylbenzenesulfonyl)-1′,2′,3′,6′-tetrahydro[2,4′]bipyridinyl-6-cyclopropanoylamine]",–,300 nM
"O=C(NCCC(F)(F)F)c1ncccc1C1=CCN(S(=O)(=O)c2cccc(C(F)(F)F)c2)CC1 [1′-(3-Trifluoromethylbenzenesulfonyl)-1′,2′,3′,6′-tetrahydro-[3,4′]bipyridinyl-2-carboxylic acid 3,3,3-trifluoropropylamide]",–,420 nM
"O=C(NC1CC1)c1cccc(C2=CCN(Cc3ccc(OC(F)(F)F)cc3)CC2)n1 [Compound 9, 1′-(4-Trifluoromethoxybenzyl)-1′,2′,3′,6′-tetrahydro-[2,4′]bipyridinyl-6-carboxylic acid cyclopropylamide]",> 20000 nM,930 nM
"O=C(NC1CC1)c1cccc(C2=CCN(S(=O)(=O)c3cccc(C(F)(F)F)c3)CC2)n1 [Compound 7, 1′-(3-Trifluoromethylbenzenesulfonyl)-1′,2′,3′,6′-tetrahydro-[2,4′]bipyridinyl-6-carboxylic acid cyclopropylamide]",–,30 nM
"O=C(NCCC(F)(F)F)c1cccc(C2=CCN(S(=O)(=O)c3cccc(C(F)(F)F)c3)CC2)n1 [1′-(3-Trifluoromethylbenzenesulfonyl)-1′,2′,3′,6′-tetrahydro-[2,4′]-bipyridinyl-6-carboxylic acid 3,3,3-trifluoropropylamide]",–,50 nM
"N#Cc1cc(S(=O)(=O)N2CC=C(c3cccc(C(=O)NC4CC4)n3)CC2)ccc1F [1′-(3-Cyano-4-fluorobenzenesulfonyl)-1′,2′,3′,6′-tetrahydro-[2,4′]bipyridinyl-6-carboxylic acid cyclopropylamide]",–,770 nM
"NC(=O)c1ccnc(C2=CCN(S(=O)(=O)c3cccc(C(F)(F)F)c3)CC2)n1 [2-[1-(3-Trifluoromethylbenzenesulfonyl)-1,2,3,6-tetrahydropyridin-4-yl]-pyrimidine-4-carboxylic acid amide]",–,360 nM
"O=C(NCC(F)(F)F)c1ncccc1C1=CCN(S(=O)(=O)c2ccc(OC(F)(F)F)cc2)CC1 [1′-(4-Trifluoromethoxybenzenesulfonyl)-1′,2′,3′,6′-tetrahydro-[3,4′]bipyridinyl-2-carboxylic acid 2,2,2-trifluoroethylamide]",–,960 nM
"O=C(NC1CC1)c1nc(C2=CCN(S(=O)(=O)c3cccc(C(F)(F)F)c3)CC2)ccc1Cl [Compound 44, 5-Chloro-1′-(3-trifluoromethylbenzenesulfonyl)-1′,2′,3′,6′-tetrahydro-[2,4′]bipyridinyl-6-carboxylic acid cyclopropylamide]",–,60 nM
"N=C(NCC1CC1)c1cccc(C2=CCN(S(=O)(=O)c3ccc(OC(F)(F)F)cc3)CC2)n1 [Compound 34, N-Cyclopropylmethyl-1′-(4-trifluoromethoxybenzenesulfonyl)-1′,2′,3′,6′-tetrahydro-[2,4′]bipyridinyl-6-carboxamidine]",–,320 nM
"O=C(NCCC(F)(F)F)c1cccc(C2=CCN(S(=O)(=O)c3ccc(OC(F)(F)F)cc3)CC2)n1 [1′-(4-Trifluoromethoxybenzenesulfonyl)-1′,2′,3′,6′-tetrahydro-[2,4′]-bipyridinyl-6-carboxylic acid 3,3,3-trifluoropropylamide]",–,250 nM
